Test systems include SK-MEL-28 melanoma; CAKI-1 renal; SW-620 colon; MDA-MB-435; SN12C renal; HCT-15 colon; DU-145 prostate; RPMI-8226 leukemia; CCRF-CEM leukemia; NCI-H522 lung.
Common to all, as to assay: NCI tumour cell line growth inhibition, 48 h

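Following 48 hours of exposure in 96-well plates, responses at five concentrations were used to interpolate endpoints linearly. GI50 = concentration required for 50% inhibition of growth. TGI: total growth inhibition.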 Bounds are passed on as bounds.

Experimental findings from PubChem BioAssay (NCI) are described below.

On to `CCCCCCCCCCCCCCCC1=NCCN1`, for which the GI50 with SK-MEL-28 melanoma was 1.88 µM; in the test with CAKI-1 renal it was 1.67 µM; with SW-620 colon it was 1.9 µM; in the test with MDA-MB-435, 1.7 µM; with SN12C renal it was 2.07 µM; with HCT-15 colon, 1.61 µM. Also, the GI50 in the test with DU-145 prostate is 1.9 µM. The TGI with SK-MEL-28 melanoma was determined as 3.77 µM; in the test on CAKI-1 renal, 3.58 µM; in the test on SW-620 colon, 3.77 µM; in the test on MDA-MB-435, 3.26 µM; in the test with SN12C renal, 4.29 µM; with HCT-15 colon, 3.24 µM. The TGI in the test on DU-145 prostate is 3.57 µM.
In the case of `COc1ccc2c(c1)c(-c1nc(-c3c[nH]c4ncccc34)cs1)cn2CCCN1CCCCC1`, the GI50 is 1.72 µM in the test on SK-MEL-28 melanoma; 2 µM in the test on SW-620 colon; 1.7 µM in the test with MDA-MB-435; 1.75 µM in the test on SN12C renal; 2.19 µM with RPMI-8226 leukemia; 1.57 µM with HCT-15 colon. The GI50 in the test on DU-145 prostate was 1.65 µM. Besides, the TGI with SK-MEL-28 melanoma worked out at 3.26 µM; in the test on SW-620 colon it was 3.95 µM; with MDA-MB-435 it was 3.21 µM; in the test with SN12C renal, 3.36 µM; in the test with RPMI-8226 leukemia it was 4.8 µM; in the test with HCT-15 colon, 2.97 µM. In the test on DU-145 prostate, this compound showed a TGI of 3.13 µM.
On to `Oc1ccc(O)c(-c2cn3c(n2)SCC3)c1`, for which the GI50 with CAKI-1 renal is 2.47 µM; with SW-620 colon it was 3.19 µM; in the test on MDA-MB-435, 15.8 µM; in the test with SN12C renal, 13.9 µM; in the test with CCRF-CEM leukemia, 5.18 µM; in the test with RPMI-8226 leukemia, 4.08 µM. Further, the values for the GI50 in the test with HCT-15 colon and in the test on NCI-H522 lung were 19.1 µM and 4.93 µM, respectively. In addition, the TGI in the test with CAKI-1 renal is 5.57 µM; with SW-620 colon, 8.17 µM; in the test on MDA-MB-435, 35.2 µM; in the test on SN12C renal, 29.2 µM; with CCRF-CEM leukemia it was over 100 µM; in the test on RPMI-8226 leukemia it was over 100 µM. The TGI in the test on HCT-15 colon is 36.9 µM; in the test with NCI-H522 lung it was over 100 µM.
With `CC(CC(=O)N1C(=O)C(C)(C)[C@@H](O)[C@H]1CC(C)C(Cl)(Cl)Cl)C(Cl)(Cl)Cl` (stereo partly specified), the TGI in the test with CAKI-1 renal, with SW-620 colon, in the test with SN12C renal, with CCRF-CEM leukemia, with RPMI-8226 leukemia and in the test on HCT-15 colon was over 100 µM throughout. The compound also came in with a TGI with NCI-H522 lung of over 100 µM.
`COc1cc(-c2nccc3cc(OC)c(OC)cc23)ccc1O`: the TGI in the test with SK-MEL-28 melanoma, with CAKI-1 renal, in the test on SW-620 colon, in the test with SN12C renal, in the test with CCRF-CEM leukemia and in the test with RPMI-8226 leukemia was over 100 µM in each case. Further, the TGI in the test with HCT-15 colon was 96.1 µM; in the test with NCI-H522 lung, over 100 µM.
Regarding `CCOC(=O)C(=O)Nc1nc2c(OCC)cccc2s1`, the TGI in the test on SK-MEL-28 melanoma, in the test with CAKI-1 renal, in the test with SW-620 colon, in the test on SN12C renal, in the test on RPMI-8226 leukemia and with HCT-15 colon was over 100 µM each time. This compound came in with a TGI in the test on NCI-H522 lung of over 100 µM.
As for `CN1CN(C2OC(CO)C(O)C2O)c2nc(N)[nH]c(=O)c21` (stereo unspecified), the TGI is over 100 µM in the test with CAKI-1 renal; over 100 µM in the test with SW-620 colon; over 100 µM in the test on SN12C renal; over 100 µM in the test with RPMI-8226 leukemia; over 100 µM in the test on HCT-15 colon; 38.5 µM in the test on NCI-H522 lung.
Take `CCCCCOCC(O)CO` (stereo unspecified): the TGI with SK-MEL-28 melanoma, with CAKI-1 renal, in the test with SW-620 colon, with SN12C renal and with HCT-15 colon was over 100 µM in each case.
As to `NC(=NCc1ccccc1)C(N=Nc1ccccc1)C(=O)NCc1ccccc1` (stereo unspecified), the GI50 is 20.4 µM in the test with SK-MEL-28 melanoma; 3.44 µM in the test with CAKI-1 renal; 1.83 µM in the test on SW-620 colon; 5.51 µM in the test with MDA-MB-435; 22.6 µM in the test with SN12C renal; 3.54 µM in the test on CCRF-CEM leukemia. Besides, the GI50 in the test with RPMI-8226 leukemia is 9.31 µM; with HCT-15 colon, 8.19 µM; in the test on DU-145 prostate, 2.28 µM. Moreover, the TGI is 45.7 µM in the test with SK-MEL-28 melanoma; 15.2 µM with CAKI-1 renal; 3.62 µM in the test on SW-620 colon; 25.5 µM with MDA-MB-435; 87 µM in the test with SN12C renal; 84.4 µM with CCRF-CEM leukemia. Besides, the TGI with RPMI-8226 leukemia is over 100 µM; in the test with HCT-15 colon, 67.3 µM; with DU-145 prostate, 6.01 µM.
`C=C(CO)CC(O)c1cc(OC)ccc1OC` (stereo unspecified): the TGI with SK-MEL-28 melanoma, in the test with CAKI-1 renal, with SW-620 colon, in the test on SN12C renal, in the test on CCRF-CEM leukemia and in the test on RPMI-8226 leukemia was over 100 µM each time. The TGI in the test on HCT-15 colon and with NCI-H522 lung was over 100 µM throughout.
For `Cc1cccc(-n2c(N)c(-c3nc4ccccc4[nH]3)sc2=S)c1`, the TGI with SK-MEL-28 melanoma is over 100 µM; with CAKI-1 renal it was 90.5 µM; in the test with SW-620 colon, 99.2 µM; with SN12C renal, 86.9 µM; with CCRF-CEM leukemia it was over 100 µM; in the test with RPMI-8226 leukemia, 57.4 µM. Also, the TGI stood at 62.3 µM with HCT-15 colon and 75.7 µM with NCI-H522 lung.
As for `COc1cc(OC)c(C(=O)c2cccs2)cc1N`, the TGI in the test on SK-MEL-28 melanoma, in the test with CAKI-1 renal, in the test on SW-620 colon, in the test on SN12C renal, in the test with CCRF-CEM leukemia and with RPMI-8226 leukemia was over 100 µM each time. Besides, in the test on HCT-15 colon, the TGI was over 100 µM.
Take `N#CC(C(=O)C(=O)Nc1ccccc1)c1ccccc1` (stereo unspecified): the TGI with SK-MEL-28 melanoma, with CAKI-1 renal, in the test with SW-620 colon, in the test on SN12C renal, in the test on CCRF-CEM leukemia and in the test on RPMI-8226 leukemia was over 100 µM in each case. The TGI in the test on HCT-15 colon and in the test on NCI-H522 lung was over 100 µM in each case.
